Experimental data from patent US6680282B2 (priority 1997, dated 2004).

Key:
[1] = system: Pyricularia oryzae; experiment: whole plant or invertebrate; type: in vivo; details: for rank (control effect, protective value from lesion number): 100 ppm spray, rice seedling (Jikkoku) 4-leaf stage, lesion number on fourth leaf 6 days after inoculation; for pest or weed control at 100 ppm: Pyricularia oryzae, foliar, 144 h, read-out: rank (control effect, protective value from lesion number)
[2] = system: Pyricularia oryzae; type: cell-based; details: 100 ppm in potato dextrose agar, 28 or 22° C., 48 hours
[3] = system: Cochlioborus miyabeanus; type: cell-based; details: 100 ppm in potato dextrose agar, 28 or 22° C., 48 hours
[4] = system: Alternaria alternata Japanese pear pathotype; type: cell-based; details: 100 ppm in potato dextrose agar, 28 or 22° C., 48 hours
Protocol: (§1) Test for Antifungal Activity
(§2) A test compound dissolved in acetone was mixed in a potato dextrose agar medium (manufactured by Nissui Seiyaku K. K.) so that the final concentration of the test compound was 100 ppm and then poured in a Petri dish. To this Perti dish after the agar was completely solidified, a cylindrical section prepared by punching a mycelial colony of each of plant pathogenic fungi cultured in another Petri dish by means of a cork borer was inoculated and cultured at 28 or 22° C. 48 Hours after the inoculation, the diameter of the mycelial colony was determined. Control percentages were calculated by comparing the diameter of the mycelial colony in a treated area with that in an untreated area. And, antifungal effect was ranked according to the following criterion.
(§3) A; control percentage ≧80%
(§4) B; control percentage 50 to 79%
(§5) C; control percentage <50%

[5] = system: Botrytis cinerea; type: cell-based; details: 100 ppm in potato dextrose agar, 28 or 22° C., 48 hours
Protocol: as §1, §2, §3, §4, §5

[6] = system: Colletotrichum atramentarium; type: cell-based; details: 100 ppm in potato dextrose agar, 28 or 22° C., 48 hours
Protocol: as §1, §2, §3, §4, §5

[7] = system: Fusarium oxysporum f. sp. lycopersici; type: cell-based; details: 100 ppm in potato dextrose agar, 28 or 22° C., 48 hours
Protocol: as §1, §2, §3, §4, §5

[8] = system: Gibberella fujikuroi; type: cell-based; details: 100 ppm in potato dextrose agar, 28 or 22° C., 48 hours
Protocol: as §1, §2, §3, §4, §5

[9] = system: Glomerella cingalata; type: cell-based; details: 100 ppm in potato dextrose agar, 28 or 22° C., 48 hours
Protocol: as §1, §2, §3, §4, §5

[10] = system: Rhizoctonia solani; type: cell-based; details: 100 ppm in potato dextrose agar, 28 or 22° C., 48 hours
Protocol: as §1, §2, §3, §4, §5

[11] = system: Sclerotinia minor; type: cell-based; details: 100 ppm in potato dextrose agar, 28 or 22° C., 48 hours
Protocol: as §1, §2, §3, §4, §5

[12] = system: Verticillium aibo-atrum; type: cell-based; details: 100 ppm in potato dextrose agar, 28 or 22° C., 48 hours
Protocol: as §1, §2, §3, §4, §5

[13] = system: Sphaerotheca fuliginea; experiment: Test for control effect against powdery mildew of Cucurbitaceae (spray on cucumber seedlings); type: in vivo; details: 200 ppm spray, cucumber first foliage leaf, 10 days after inoculation
From the text: Test for Control Effect Against Powdery Mildew of Cucurbitaceae
A spray liquid comprising a test compound whose concentration was adjusted to be 200 ppm by dilution with water was sprayed to a cucumber grown in a vinyl pot of 3 cm in diameter when its first foliage leaf was developed. The air-dried cucumber seedling was inoculated with a conidium suspension of Sphaerotheca fuliginea. Thereafter, the cucumber seedling was transferred in an air-conditioned greenhouse. 10 Days after the inoculation, the disease severity was observed. The protective value was calculated by comparing the disease severity in a treated area with that in an untreated area. Then, control effect was ranked according to the following criterion.
B; protective value 50 to 79%

SMILES: CCCCc1ccc2nc(C)c(C)c(O)c2c1 [Compound No. 28]
- rank (control effect, protective value from lesion number) [1]: A (protective value ≧80%)
- rank (antifungal effect, control percentage of mycelial colony diameter) [2]: B (control percentage 50 to 79%)
- rank (antifungal effect, control percentage of mycelial colony diameter) [3]: C (control percentage <50%)
- rank (antifungal effect, control percentage of mycelial colony diameter) [4]: C (control percentage <50%)
- rank (antifungal effect, control percentage of mycelial colony diameter) [5]: C (control percentage <50%)
- rank (antifungal effect, control percentage of mycelial colony diameter) [6]: B (control percentage 50 to 79%)
- rank (antifungal effect, control percentage of mycelial colony diameter) [7]: C (control percentage <50%)
- rank (antifungal effect, control percentage of mycelial colony diameter) [8]: C (control percentage <50%)
- rank (antifungal effect, control percentage of mycelial colony diameter) [9]: B (control percentage 50 to 79%)
- rank (antifungal effect, control percentage of mycelial colony diameter) [10]: C (control percentage <50%)
- rank (antifungal effect, control percentage of mycelial colony diameter) [11]: C (control percentage <50%)
- rank (antifungal effect, control percentage of mycelial colony diameter) [12]: A (control percentage ≧80%)

SMILES: CCC(C)c1cc(C=O)c2nc(C)c(C)c(OC(C)=O)c2c1 (stereo not drawn) [Compound No. 356, 4-acetoxy-6-s-butyl-8-formyl-2,3-dimethylquinoline]
- pest or weed control at 100 ppm [1]: > 80%
- rank (control effect, protective value from disease severity) [13]: A (protective value ≧80%)

SMILES: CCOC(=O)Oc1c(C)c(C)nc2ccc(C(C)CC)cc12 (stereo not drawn) [compound 66]
- rank (control effect, protective value from lesion number) [1]: A (protective value ≧80%)
- rank (control effect, protective value from disease severity) [13]: A (protective value ≧80%)

SMILES: CCc1cc(CC)c2nc(C)c(C)c(OC(C)=O)c2c1 [Compound No. 268]
- rank (control effect, protective value from lesion number) [1]: A (protective value ≧80%)
- rank (control effect, protective value from disease severity) [13]: B (protective value 50 to 79%)

SMILES: CCC(C)c1ccc2nc3c(c(OC(C)=O)c2c1)CCC3 (stereo not drawn) [Compound No. 153]
- rank (control effect, protective value from lesion number) [1]: B (protective value 50 to 79%)
- rank (control effect, protective value from disease severity) [13]: A (protective value ≧80%)

SMILES: CC(=O)Oc1c(C)c(C)nc2ccc(CC(C)C)cc12 [compound 93]
- rank (control effect, protective value from lesion number) [1]: A (protective value ≧80%)
- rank (control effect, protective value from disease severity) [13]: A (protective value ≧80%)

SMILES: CC(=O)Oc1c(C)c(C)nc2ccc(OC(C)C)cc12 [compound 24]
- rank (control effect, protective value from lesion number) [1]: B (protective value 50 to 79%)
- rank (control effect, protective value from disease severity) [13]: A (protective value ≧80%)

SMILES: CCCCCCCCOC(=O)Oc1c(C)c(C)nc2ccc(C(C)CC)cc12 (stereo not drawn) [compound 67]
- rank (control effect, protective value from lesion number) [1]: A (protective value ≧80%)
- rank (control effect, protective value from disease severity) [13]: A (protective value ≧80%)

SMILES: CC(=O)Oc1c(C)c(C)nc2c(C)cc(Br)cc12 [compound 195]
- rank (control effect, protective value from lesion number) [1]: A (protective value ≧80%)
- rank (control effect, protective value from disease severity) [13]: A (protective value ≧80%)

SMILES: CCC(C)c1ccc2nc(C)c(C)c(OC(=O)OC)c2c1 (stereo not drawn) [compound 65]
- rank (control effect, protective value from lesion number) [1]: A (protective value ≧80%)
- rank (control effect, protective value from disease severity) [13]: A (protective value ≧80%)

SMILES: CC(=O)Oc1c(C)c(C)nc2ccc(Oc3ccccc3)cc12 [Compound No. 136]
- rank (control effect, protective value from lesion number) [1]: A (protective value ≧80%)
- rank (control effect, protective value from disease severity) [13]: A (protective value ≧80%)

SMILES: CCC(C)c1ccc2nc(C)c(C)c(OC(=O)Oc3ccccc3)c2c1 (stereo not drawn) [compound 68]
- rank (control effect, protective value from lesion number) [1]: A (protective value ≧80%)
- rank (control effect, protective value from disease severity) [13]: A (protective value ≧80%)

SMILES: CC(=O)Oc1c(C)c(C)nc2ccc(C3CCCCC3)cc12 [Compound No. 112]
- rank (control effect, protective value from lesion number) [1]: A (protective value ≧80%)
- rank (control effect, protective value from disease severity) [13]: A (protective value ≧80%)

SMILES: CCCCc1ccc2nc(C)c(C)c(OC(=O)C3CC3)c2c1 [compound 31]
- rank (control effect, protective value from lesion number) [1]: A (protective value ≧80%)
- rank (antifungal effect, control percentage of mycelial colony diameter) [2]: A (control percentage ≧80%)
- rank (antifungal effect, control percentage of mycelial colony diameter) [3]: A (control percentage ≧80%)
- rank (antifungal effect, control percentage of mycelial colony diameter) [4]: A (control percentage ≧80%)
- rank (antifungal effect, control percentage of mycelial colony diameter) [5]: A (control percentage ≧80%)
- rank (antifungal effect, control percentage of mycelial colony diameter) [6]: A (control percentage ≧80%)
- rank (antifungal effect, control percentage of mycelial colony diameter) [7]: A (control percentage ≧80%)
- rank (antifungal effect, control percentage of mycelial colony diameter) [8]: A (control percentage ≧80%)
- rank (antifungal effect, control percentage of mycelial colony diameter) [9]: A (control percentage ≧80%)
- rank (antifungal effect, control percentage of mycelial colony diameter) [10]: C (control percentage <50%)
- rank (antifungal effect, control percentage of mycelial colony diameter) [11]: B (control percentage 50 to 79%)
- rank (antifungal effect, control percentage of mycelial colony diameter) [12]: A (control percentage ≧80%)

SMILES: CC(=O)Oc1c(C)c(C)nc2c(Cl)cc(C(C)(C)C)cc12 [Compound No. 218]
- rank (control effect, protective value from lesion number) [1]: A (protective value ≧80%)
- rank (control effect, protective value from disease severity) [13]: A (protective value ≧80%)

SMILES: CCC(C)c1cc(CCl)c2nc(C)c(C)c(OC(C)=O)c2c1 (stereo not drawn) [Compound No. 344, 4-acetoxy-6-s-butyl-8-chloromethyl-2,3-dimethylquinoline]
- pest or weed control at 100 ppm [1]: > 80%
- rank (control effect, protective value from disease severity) [13]: A (protective value ≧80%)

SMILES: CC(=O)Oc1c(C)c(C)nc2ccc(Br)c(C)c12 [compound 197]
- rank (control effect, protective value from lesion number) [1]: A (protective value ≧80%)
- rank (control effect, protective value from disease severity) [13]: A (protective value ≧80%)

SMILES: CCC(C)c1cc(Cl)c2nc(C)c(C)c(OC(C)=O)c2c1 (stereo not drawn) [Compound No. 214, 4-acetoxy-6-s-butyl-8-chloro-2,3-dimethylquinoline]
- pest or weed control at 100 ppm [1]: > 80%
- rank (control effect, protective value from disease severity) [13]: A (protective value ≧80%)

SMILES: CCC(C)c1cc(CO)c2nc(C)c(C)c(OC(C)=O)c2c1 (stereo not drawn) [Compound No. 340, 4-acetoxy-6-s-butyl-8-hydroxymethyl-2,3-dimethylquinoline]
- pest or weed control at 100 ppm [1]: > 80%
- rank (control effect, protective value from disease severity) [13]: A (protective value ≧80%)

SMILES: CCc1ccc2nc(C)c(C)c(OC(C)=O)c2c1 [Compound No. 10]
- rank (control effect, protective value from lesion number) [1]: A (protective value ≧80%)
- rank (antifungal effect, control percentage of mycelial colony diameter) [2]: A (control percentage ≧80%)
- rank (antifungal effect, control percentage of mycelial colony diameter) [3]: B (control percentage 50 to 79%)
- rank (antifungal effect, control percentage of mycelial colony diameter) [4]: C (control percentage <50%)
- rank (antifungal effect, control percentage of mycelial colony diameter) [5]: C (control percentage <50%)
- rank (antifungal effect, control percentage of mycelial colony diameter) [6]: B (control percentage 50 to 79%)
- rank (antifungal effect, control percentage of mycelial colony diameter) [7]: C (control percentage <50%)
- rank (antifungal effect, control percentage of mycelial colony diameter) [8]: C (control percentage <50%)
- rank (antifungal effect, control percentage of mycelial colony diameter) [9]: B (control percentage 50 to 79%)
- rank (antifungal effect, control percentage of mycelial colony diameter) [10]: C (control percentage <50%)
- rank (antifungal effect, control percentage of mycelial colony diameter) [11]: C (control percentage <50%)
- rank (antifungal effect, control percentage of mycelial colony diameter) [12]: C (control percentage <50%)

SMILES: CCC(C)c1ccc2nc(C)c(C)c(OC(=O)N(CC)CC)c2c1 (stereo not drawn) [compound 72]
- rank (control effect, protective value from lesion number) [1]: B (protective value 50 to 79%)
- rank (control effect, protective value from disease severity) [13]: A (protective value ≧80%)

SMILES: CCCCc1ccc2nc(C)c(C)c(OC(C)=O)c2c1 [Compound No. 29]
- rank (control effect, protective value from lesion number) [1]: A (protective value ≧80%)
- rank (control effect, protective value from disease severity) [13]: B (protective value 50 to 79%)
- rank (antifungal effect, control percentage of mycelial colony diameter) [2]: A (control percentage ≧80%)
- rank (antifungal effect, control percentage of mycelial colony diameter) [3]: B (control percentage 50 to 79%)
- rank (antifungal effect, control percentage of mycelial colony diameter) [4]: C (control percentage <50%)
- rank (antifungal effect, control percentage of mycelial colony diameter) [5]: B (control percentage 50 to 79%)
- rank (antifungal effect, control percentage of mycelial colony diameter) [6]: B (control percentage 50 to 79%)
- rank (antifungal effect, control percentage of mycelial colony diameter) [7]: B (control percentage 50 to 79%)
- rank (antifungal effect, control percentage of mycelial colony diameter) [8]: B (control percentage 50 to 79%)
- rank (antifungal effect, control percentage of mycelial colony diameter) [9]: A (control percentage ≧80%)
- rank (antifungal effect, control percentage of mycelial colony diameter) [10]: C (control percentage <50%)
- rank (antifungal effect, control percentage of mycelial colony diameter) [11]: C (control percentage <50%)
- rank (antifungal effect, control percentage of mycelial colony diameter) [12]: A (control percentage ≧80%)

SMILES: CCc1cc(C(C)CC)cc2c(OC(C)=O)c(C)c(C)nc12 (racemic) [Compound No. 348]
- rank (control effect, protective value from lesion number) [1]: A (protective value ≧80%)
- rank (control effect, protective value from disease severity) [13]: A (protective value ≧80%)
